Earlier results in patent US7456141B2, “Photo resist stripper composition” (Echem Solutions Corp., priority 2004, dated 2008).
Like-named read-outs stand apart in the source and are kept apart here.

Columns and labels:
[1] = Table 3
[2] = Table 3, route and species not given; in mg/kg
[3] = for Flash Point / Ignition Point / Vaporizing Speed: Table 2; for Steam Pressure: at 20 ° C. (mmHg/° C. [sic])
[4] = system: Rat
[5] = for STEL: Short Time Exposure Limit, 15 minutes; for TWA: Time Weighted Average, eight hours a day and 40 hours a week
[6] = system: Rabbit
[7] = system: Mouse
[8] = system: Rat; remark: listed apart in the source
[9] = system: Rat; remark: listed apart in the source

| SMILES | Flash Point [1] [°C] | Vaporizing Point [1] [°C] | Viscosity [1] [cst] | LD50 [2] | Flash Point [3] [°C] | Ignition Point [3] [°C] | Vaporizing Speed [3] | Steam Pressure [3] | LC50/Inhale/Rat ([4]; exposure time not given) | STEL [5] [ppm] | TWA [5] [ppm] | LD50/Hypodermic/Rabbit [6] | LC50/Inhale/Mouse [7] | LC50/Inhale/Rat ([4]; 7 hrs.) | LD50/Oral/Rat [8] | LD50/Hypodermic/Rat ([9]; hypodermic) | LC50/Inhale/Rat ([4]; 6 hrs.) | LD50/Hypodermic/Rat ([9]; in vivo) | LC50/Inhale/Rat ([4]; 4 hrs.) |
| --- | --- | --- | --- | --- | --- | --- | --- | --- | --- | --- | --- | --- | --- | --- | --- | --- | --- | --- | --- |
| O=C1CCCCC1 [ANONE, cyclohexanone] | 44 | 4 | 2.2 | 1535 |  |  |  |  |  |  |  |  |  |  |  |  |  |  |  |
| CC(=O)OCCC(C)C [IAAc, Isoamyl acetate] | 25 | 4 |  | 16600 |  |  |  |  |  |  |  |  |  |  |  |  |  |  |  |
| CC(=O)CC(C)C [MIBK, Methyl isobutyl ketone] |  |  |  |  | 18 | 449 | 1.57 | 16/20 mmHg | LC50/Inhale/Rat: 4000 ppm | 75 | 50 | LD50/Hypodermic/Rabbit: 20 mg/kg | LC50/Inhale/Mouse: 23300 mg/m^3 |  |  |  |  |  |  |
| COCC(C)O (centres unmarked) [PGME, propylene glycol mono-methyl ether] | 32 | 11.8 | 1.8 | 6600 | 32 |  | 0.66 | 6.7/20 mmHg |  |  | 100 |  |  | LC50/Inhale/Rat: 15000 ppm (7 hrs.) | LD50/Oral/Rat: 6600 mg/kg | LD50/Hypodermic/Rat: 13000 mg/kg |  |  |  |
| COCC(C)OC(C)=O (centres unmarked) [PGMEA, Propylene glycol mono-methyl ether acetate] | 47 | 3.8 | 1.1 | 8532 | 42 | 354 | 0.34 | 3.8/20 mmHg |  |  | 100 |  |  |  | LD50/Oral/Rat: 8532 mg/kg |  | LC50/Inhale/Rat: 4345 ppm (6 hrs.) | LD50/Hypodermic/Rat: 5000 mg/kg |  |
| CCCCOC(C)=O [nBAc, n-Butyl Acetate] | 22 | 15 | 0.7 | 13100 | 22 | 425 | 0.98 | 7.8/20 mmHg |  | 200 | 150 |  |  |  |  |  |  |  | LC50/Inhale/Rat: 2000 ppm (4 hrs.) |
